Experimental data published in BigSolDB 2.1.

O=S(=O)(c1ccc(O)cc1)c1ccccc1O
solubility (mole fraction)
Details	in 1,4-dioxane	in 2-butanone	in acetone	in acetonitrile	in ethanol	in ethyl acetate	in isopropanol	in methanol	in n-butanol
278.15 K	0.0184	0.101	0.106	0.00974	0.0655	0.0386	0.0656	0.0569	0.0571
280.65 K	0.0213	0.103	0.108	0.0109	0.0672	0.0402	0.068	0.0583	0.0584
283.15 K	0.0242	0.105	0.11	0.0121	0.0689	0.0415	0.0708	0.0597	0.0597
285.65 K	0.0272	0.107	0.112	0.0132	0.0706	0.0432	0.074	0.0612	0.0609
288.15 K	0.0303	0.109	0.115	0.0144	0.0725	0.0449	0.0767	0.0627	0.0621
290.65 K	0.0338	0.111	0.117	0.0156	0.0746	0.0465	0.0798	0.0643	0.0634
293.15 K	0.0376	0.113	0.12	0.0169	0.0766	0.0482	0.0825	0.0661	0.0645
295.65 K	0.0415	0.115	0.124	0.0179	0.0785	0.0501	0.0857	0.0677	0.0658
298.15 K	0.0465	0.118	0.127	0.0192	0.0805	0.052	0.089	0.0696	0.0671
300.65 K	0.0514	0.12	0.13	0.0204	0.0827	0.054	0.0925	0.0716	0.0682
303.15 K	0.0557	0.122	0.133	0.0219	0.085	0.0562	0.0963	0.0739	0.0694
305.65 K	0.0611	0.125	0.136	0.0236	0.0872	0.0585	0.1	0.0763	0.0707
308.15 K	0.0664	0.127	0.139	0.0252	0.0898	0.0609	0.104	0.0786	0.0719
310.65 K	0.0713	0.13	0.142	0.0271	0.0928	0.0637	0.109	0.0809	0.0734
313.15 K	0.077	0.134	0.146	0.0295	0.0957	0.0669	0.113	0.0838	0.0751
